Reference: ChEMBL document CHEMBL4627255, “Efficient synthesis of tert-butyl 3-cyano-3-cyclopropyl-2-oxopyrrolidine-4-carboxylates: Highly functionalized 2-pyrrolidinone enabling access to novel macrocyclic Tyk2 inhibitors” (Bioorg Med Chem Lett, 2020)

Experiments:
[1] = target: T1, Non-receptor tyrosine-protein kinase TYK2 (Homo sapiens, UniProt P29597); test: Inhibition of TYK2 (unknown origin)
[2] = target: Tyrosine-protein kinase JAK2 (Homo sapiens, UniProt O60674); test: Inhibition of JAK2 (unknown origin)
Chain of Tyrosine-protein kinase JAK2 (O60674 whole entry): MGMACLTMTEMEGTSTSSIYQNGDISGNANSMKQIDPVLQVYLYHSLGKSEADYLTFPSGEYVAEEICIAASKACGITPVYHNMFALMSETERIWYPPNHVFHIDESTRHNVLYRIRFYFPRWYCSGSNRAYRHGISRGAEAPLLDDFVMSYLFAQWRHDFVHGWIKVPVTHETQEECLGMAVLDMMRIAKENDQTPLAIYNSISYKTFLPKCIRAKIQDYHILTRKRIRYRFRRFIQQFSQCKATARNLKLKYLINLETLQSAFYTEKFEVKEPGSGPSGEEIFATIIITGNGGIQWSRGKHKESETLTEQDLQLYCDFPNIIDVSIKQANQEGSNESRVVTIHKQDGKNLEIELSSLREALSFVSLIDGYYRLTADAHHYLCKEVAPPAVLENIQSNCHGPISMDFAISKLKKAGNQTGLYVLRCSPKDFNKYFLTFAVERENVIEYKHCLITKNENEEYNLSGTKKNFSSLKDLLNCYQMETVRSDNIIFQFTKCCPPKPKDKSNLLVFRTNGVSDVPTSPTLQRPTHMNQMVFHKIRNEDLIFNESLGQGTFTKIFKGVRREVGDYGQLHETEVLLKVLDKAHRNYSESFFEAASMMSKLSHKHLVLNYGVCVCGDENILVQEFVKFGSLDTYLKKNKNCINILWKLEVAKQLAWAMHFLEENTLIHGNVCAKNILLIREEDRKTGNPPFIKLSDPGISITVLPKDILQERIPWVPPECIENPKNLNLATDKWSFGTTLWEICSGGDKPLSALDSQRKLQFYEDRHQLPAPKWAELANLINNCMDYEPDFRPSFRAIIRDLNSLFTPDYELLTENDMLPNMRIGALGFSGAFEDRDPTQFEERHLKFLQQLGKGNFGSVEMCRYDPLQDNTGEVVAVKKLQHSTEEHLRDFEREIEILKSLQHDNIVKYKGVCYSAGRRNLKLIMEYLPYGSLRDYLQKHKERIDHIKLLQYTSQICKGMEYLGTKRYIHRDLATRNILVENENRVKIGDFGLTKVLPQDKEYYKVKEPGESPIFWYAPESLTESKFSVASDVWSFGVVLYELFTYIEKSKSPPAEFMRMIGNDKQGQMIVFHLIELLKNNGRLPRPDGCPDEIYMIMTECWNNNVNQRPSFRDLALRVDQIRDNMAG

[3] = target: T2, Tyrosine-protein kinase JAK3 (Homo sapiens, UniProt P52333); test: Inhibition of JAK3 (unknown origin)
T2 sequence (P52333 whole entry): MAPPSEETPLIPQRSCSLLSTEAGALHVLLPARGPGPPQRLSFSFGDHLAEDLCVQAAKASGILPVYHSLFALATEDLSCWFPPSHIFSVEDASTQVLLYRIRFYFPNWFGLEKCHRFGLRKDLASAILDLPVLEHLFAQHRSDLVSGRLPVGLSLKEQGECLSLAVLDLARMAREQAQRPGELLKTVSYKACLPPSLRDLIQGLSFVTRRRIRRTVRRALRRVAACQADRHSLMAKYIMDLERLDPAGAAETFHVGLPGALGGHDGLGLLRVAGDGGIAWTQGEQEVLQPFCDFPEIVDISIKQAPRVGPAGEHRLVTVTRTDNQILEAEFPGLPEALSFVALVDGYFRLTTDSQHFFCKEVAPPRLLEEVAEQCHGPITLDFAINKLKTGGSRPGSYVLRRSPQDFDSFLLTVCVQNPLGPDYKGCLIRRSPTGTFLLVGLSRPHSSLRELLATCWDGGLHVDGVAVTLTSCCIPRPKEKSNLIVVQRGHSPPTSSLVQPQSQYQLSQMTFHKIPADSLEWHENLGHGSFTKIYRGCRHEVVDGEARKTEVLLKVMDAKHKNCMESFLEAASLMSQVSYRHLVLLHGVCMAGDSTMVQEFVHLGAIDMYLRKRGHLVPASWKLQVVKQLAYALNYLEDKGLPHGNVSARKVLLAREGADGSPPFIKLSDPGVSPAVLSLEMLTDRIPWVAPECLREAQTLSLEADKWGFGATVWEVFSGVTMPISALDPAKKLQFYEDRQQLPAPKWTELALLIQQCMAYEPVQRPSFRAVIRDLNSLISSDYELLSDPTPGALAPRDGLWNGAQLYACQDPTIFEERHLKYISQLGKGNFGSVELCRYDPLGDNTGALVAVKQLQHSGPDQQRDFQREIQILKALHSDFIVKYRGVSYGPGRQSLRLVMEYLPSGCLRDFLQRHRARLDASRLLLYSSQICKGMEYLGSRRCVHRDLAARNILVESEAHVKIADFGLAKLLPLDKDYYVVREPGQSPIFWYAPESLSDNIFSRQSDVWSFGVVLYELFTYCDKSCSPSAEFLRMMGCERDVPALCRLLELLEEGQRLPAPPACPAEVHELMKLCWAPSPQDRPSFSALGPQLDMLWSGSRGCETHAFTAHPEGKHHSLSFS

[4] = target: Tyrosine-protein kinase JAK1 (Homo sapiens, UniProt P23458); test: Inhibition of JAK1 (unknown origin)
Chain of Tyrosine-protein kinase JAK1 (P23458 whole entry): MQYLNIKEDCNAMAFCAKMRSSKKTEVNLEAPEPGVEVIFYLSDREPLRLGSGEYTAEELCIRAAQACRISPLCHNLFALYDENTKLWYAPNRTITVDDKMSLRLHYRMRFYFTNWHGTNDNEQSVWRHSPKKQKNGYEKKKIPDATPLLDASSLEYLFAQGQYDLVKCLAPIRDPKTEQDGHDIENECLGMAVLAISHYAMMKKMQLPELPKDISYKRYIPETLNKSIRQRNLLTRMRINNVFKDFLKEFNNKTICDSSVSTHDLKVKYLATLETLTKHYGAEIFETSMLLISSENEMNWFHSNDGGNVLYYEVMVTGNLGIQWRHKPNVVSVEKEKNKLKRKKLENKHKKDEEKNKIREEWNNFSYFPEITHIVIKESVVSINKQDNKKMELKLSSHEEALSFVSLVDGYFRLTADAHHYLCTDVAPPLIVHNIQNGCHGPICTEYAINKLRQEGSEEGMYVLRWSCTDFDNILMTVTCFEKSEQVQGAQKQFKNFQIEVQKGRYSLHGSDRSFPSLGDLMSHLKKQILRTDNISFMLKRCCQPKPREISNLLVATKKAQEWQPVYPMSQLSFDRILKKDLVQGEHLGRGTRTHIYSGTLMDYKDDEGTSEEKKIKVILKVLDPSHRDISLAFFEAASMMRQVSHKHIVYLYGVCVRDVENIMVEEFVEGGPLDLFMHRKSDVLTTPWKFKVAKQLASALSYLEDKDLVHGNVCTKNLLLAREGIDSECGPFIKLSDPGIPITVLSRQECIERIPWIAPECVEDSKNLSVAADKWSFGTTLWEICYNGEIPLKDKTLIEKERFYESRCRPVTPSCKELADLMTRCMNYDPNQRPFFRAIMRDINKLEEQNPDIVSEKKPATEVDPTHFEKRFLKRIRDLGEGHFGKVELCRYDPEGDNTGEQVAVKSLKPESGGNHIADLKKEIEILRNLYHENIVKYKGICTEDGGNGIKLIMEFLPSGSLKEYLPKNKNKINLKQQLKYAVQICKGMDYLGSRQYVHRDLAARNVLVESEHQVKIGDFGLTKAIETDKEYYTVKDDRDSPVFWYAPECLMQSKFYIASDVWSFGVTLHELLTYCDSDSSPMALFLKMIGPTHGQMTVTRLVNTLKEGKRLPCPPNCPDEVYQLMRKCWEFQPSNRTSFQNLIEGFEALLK

Homo sapiens [5] = organism: Homo sapiens; test: Selectivity index, ratio of IC50 for JAK2 (unknown origin) to IC50 for TYK2 (unknown origin)
[6] = target: T1, Non-receptor tyrosine-protein kinase TYK2; test: Inhibition of TYK2 in human Jurkat cells by luciferase reporter gene assay; format: cell-based
Homo sapiens [7] = organism: Homo sapiens; test: Selectivity index, ratio of IC50 for JAK3 (unknown origin) to IC50 for TYK2 (unknown origin)
Homo sapiens [8] = organism: Homo sapiens; test: Selectivity index, ratio of IC50 for JAK1 (unknown origin) to IC50 for TYK2 (unknown origin)

T1 sequence (P29597 whole entry): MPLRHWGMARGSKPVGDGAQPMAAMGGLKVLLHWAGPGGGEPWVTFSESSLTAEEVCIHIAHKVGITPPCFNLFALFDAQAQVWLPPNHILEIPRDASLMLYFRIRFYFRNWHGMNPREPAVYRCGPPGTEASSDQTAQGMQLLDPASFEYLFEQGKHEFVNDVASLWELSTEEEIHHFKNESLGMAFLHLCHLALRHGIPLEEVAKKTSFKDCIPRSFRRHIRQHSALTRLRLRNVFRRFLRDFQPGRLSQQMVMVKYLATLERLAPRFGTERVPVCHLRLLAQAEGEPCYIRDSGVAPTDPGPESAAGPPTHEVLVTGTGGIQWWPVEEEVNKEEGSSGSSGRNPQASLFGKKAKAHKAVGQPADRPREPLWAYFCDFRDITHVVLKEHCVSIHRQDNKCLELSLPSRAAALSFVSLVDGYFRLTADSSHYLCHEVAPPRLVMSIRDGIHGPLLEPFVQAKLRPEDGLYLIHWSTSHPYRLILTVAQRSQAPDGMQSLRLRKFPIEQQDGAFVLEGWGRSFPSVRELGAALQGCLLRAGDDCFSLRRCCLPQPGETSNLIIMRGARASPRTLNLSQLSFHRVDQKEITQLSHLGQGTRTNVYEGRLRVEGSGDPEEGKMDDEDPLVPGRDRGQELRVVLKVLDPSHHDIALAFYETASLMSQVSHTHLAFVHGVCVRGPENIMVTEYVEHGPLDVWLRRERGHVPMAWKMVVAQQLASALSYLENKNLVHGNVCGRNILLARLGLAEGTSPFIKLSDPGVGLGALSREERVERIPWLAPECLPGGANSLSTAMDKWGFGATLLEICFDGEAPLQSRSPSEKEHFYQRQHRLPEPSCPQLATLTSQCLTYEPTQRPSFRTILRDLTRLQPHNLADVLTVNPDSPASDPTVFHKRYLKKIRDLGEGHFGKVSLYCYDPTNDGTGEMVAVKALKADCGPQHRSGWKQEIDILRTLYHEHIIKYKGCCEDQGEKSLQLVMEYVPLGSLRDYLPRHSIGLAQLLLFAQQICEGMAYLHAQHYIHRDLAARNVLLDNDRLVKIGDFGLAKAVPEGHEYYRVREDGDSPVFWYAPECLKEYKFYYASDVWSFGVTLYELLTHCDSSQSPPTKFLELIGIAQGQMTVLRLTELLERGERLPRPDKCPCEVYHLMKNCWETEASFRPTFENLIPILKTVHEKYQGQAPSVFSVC

Row | SMILES | IC50 [1] | IC50 [2] | IC50 [3] | IC50 [4] | Ratio IC50 (Homo sapiens [5]) | IC50 [6] | Ratio IC50 (Homo sapiens [7]) | Ratio IC50 (Homo sapiens [8])
1 | CN(C)C(=O)c1ccc(Nc2cc(N3CC[C@@](C#N)(C4CC4)C3=O)ccn2)nc1 | 1.1 nM |  |  |  |  |  |  | 
2 | N#C[C@]1(C2CC2)C(=O)N2C[C@H]1COC/C=C\COCc1cccc(n1)Nc1cc2ccn1 | 5.2 nM | 130 nM | 270 nM | 580 nM | 25 | 260 nM | 52 | 110
3 | N#C[C@]1(C2CC2)C(=O)N2C[C@H]1COCC(=O)NCCCc1cccc(n1)Nc1cc2ccn1 | 5.5 nM | 100 nM | 43 nM | 130 nM | 18 | 180 nM | 7.8 | 24
4 | N#C[C@]1(C2CC2)C(=O)N2C[C@H]1COCC(=O)NCc1cccc(n1)Nc1cc2ccn1 | 130 nM | 1000 nM | 1900 nM | 3000 nM | 7.7 | 1300 nM | 15 | 23
5 | N#C[C@]1(C2CC2)C(=O)N2C[C@H]1COC/C=C/COCc1cccc(n1)Nc1cc2ccn1 | 12 nM | 140 nM | 180 nM | 360 nM | 12 | 440 nM | 15 | 30
6 | N#C[C@]1(C2CC2)C(=O)N2C[C@H]1COCCCCOCc1cccc(n1)Nc1cc2ccn1 | 4.9 nM | 130 nM | 400 nM | 710 nM | 27 | 210 nM | 82 | 140
7 | N#C[C@]1(C2CC2)C(=O)N2C[C@H]1COCC(=O)NCCc1cccc(n1)Nc1cc2ccn1 | 23 nM | 180 nM | 130 nM | 910 nM | 7.8 | 210 nM | 5.7 | 40
